The NIST ThermoML archive (doi:10.1016/j.jct.2005.03.020)

Key:
[1] = xn = mol fraction of the nth substance listed; details: 298.15 K, 101.33 kPa, Liquid
[2] = excess molar enthalpy (molar enthalpy of mixing); xn = mol fraction of the nth substance listed; details: 298.15 K, 101.33 kPa, Liquid

ClCCCCCCCl [1,6-dichlorohexane] + CCOC(C)=O
Details	excess molar enthalpy [kJ/mol]	mass density [kg/m3]
[1], x2 = 0.0827	–	1053.91
[1], x2 = 0.164	–	1043.7
[1], x2 = 0.2386	–	1033.83
[1], x2 = 0.3112	–	1023.72
[1], x2 = 0.3783	–	1013.89
[1], x2 = 0.4437	–	1003.86
[1], x2 = 0.5071	–	993.65
[1], x2 = 0.5654	–	983.86
[1], x2 = 0.6221	–	973.92
[1], x2 = 0.6754	–	964.14
[1], x2 = 0.7291	–	953.86
[1], x2 = 0.7774	–	944.24
[1], x2 = 0.824	–	934.61
[1], x2 = 0.8726	–	924.1
[1], x2 = 0.9134	–	914.94
[1], x2 = 0.9552	–	905.22
[2], x2 = 0.0931	0.0324	–
[2], x2 = 0.1859	0.053	–
[2], x2 = 0.2737	0.073	–
[2], x2 = 0.3572	0.0826	–
[2], x2 = 0.4323	0.0759	–
[2], x2 = 0.4967	0.0625	–
[2], x2 = 0.5544	0.0421	–
[2], x2 = 0.6025	0.0316	–
[2], x2 = 0.6355	0.0226	–
[2], x2 = 0.7013	0.0133	–
[2], x2 = 0.769	0.0044	–
[2], x2 = 0.8355	-0.0095	–
[2], x2 = 0.9006	-0.0152	–
[2], x2 = 0.9593	-0.0068	–

ClCCCCCCCl [1,6-dichlorohexane] + CCCCC(=O)OCC
Details	excess molar enthalpy [kJ/mol]	mass density [kg/m3]
[1], x2 = 0.0538	–	1053.1
[1], x2 = 0.1126	–	1041.51
[1], x2 = 0.1693	–	1030.36
[1], x2 = 0.2307	–	1018.34
[1], x2 = 0.287	–	1007.32
[1], x2 = 0.3464	–	995.69
[1], x2 = 0.5231	–	961.26
[1], x2 = 0.5825	–	949.74
[1], x2 = 0.701	–	926.81
[1], x2 = 0.7586	–	915.69
[1], x2 = 0.8777	–	892.8
[1], x2 = 0.94	–	880.88
[2], x2 = 0.0607	-0.0181	–
[2], x2 = 0.127	-0.0375	–
[2], x2 = 0.1968	-0.061	–
[2], x2 = 0.264	-0.0857	–
[2], x2 = 0.3289	-0.111	–
[2], x2 = 0.389	-0.139	–
[2], x2 = 0.4445	-0.166	–
[2], x2 = 0.4953	-0.183	–
[2], x2 = 0.5409	-0.188	–
[2], x2 = 0.5672	-0.188	–
[2], x2 = 0.5813	-0.188	–
[2], x2 = 0.6117	-0.181	–
[2], x2 = 0.6723	-0.165	–
[2], x2 = 0.7364	-0.143	–
[2], x2 = 0.8027	-0.116	–
[2], x2 = 0.8717	-0.0828	–
[2], x2 = 0.9373	-0.0449	–

CCCC(=O)OCC [ethyl butanoate] + ClCCCl
Details	excess molar enthalpy [kJ/mol]	mass density [kg/m3]
[1], x1 = 0.0378	–	1221.95
[1], x1 = 0.075	–	1199.86
[1], x1 = 0.1149	–	1177.55
[1], x1 = 0.1568	–	1155.49
[1], x1 = 0.198	–	1134.78
[1], x1 = 0.2425	–	1113.63
[1], x1 = 0.2957	–	1089.91
[1], x1 = 0.3476	–	1068.19
[1], x1 = 0.4019	–	1046.72
[1], x1 = 0.46	–	1025.2
[1], x1 = 0.5234	–	1003.08
[1], x1 = 0.5887	–	981.85
[1], x1 = 0.6583	–	960.62
[1], x1 = 0.7338	–	939.07
[1], x1 = 0.8138	–	917.85
[1], x1 = 0.9027	–	895.87
[2], x1 = 0.0372	-0.024	–
[2], x1 = 0.0865	-0.0668	–
[2], x1 = 0.1386	-0.122	–
[2], x1 = 0.1921	-0.182	–
[2], x1 = 0.2431	-0.246	–
[2], x1 = 0.2939	-0.308	–
[2], x1 = 0.3419	-0.361	–
[2], x1 = 0.388	-0.409	–
[2], x1 = 0.4274	-0.441	–
[2], x1 = 0.4838	-0.456	–
[2], x1 = 0.5489	-0.459	–
[2], x1 = 0.5825	-0.451	–
[2], x1 = 0.6236	-0.435	–
[2], x1 = 0.7068	-0.379	–
[2], x1 = 0.7989	-0.285	–
[2], x1 = 0.8971	-0.17	–
[2], x1 = 0.9325	-0.122	–

ClCCCCCCCl [1,6-dichlorohexane] + CCCC(=O)OCC
Details	excess molar enthalpy [kJ/mol]	mass density [kg/m3]
[1], x2 = 0.0651	–	1052.45
[1], x2 = 0.1277	–	1041.56
[1], x2 = 0.1889	–	1030.69
[1], x2 = 0.2509	–	1019.59
[1], x2 = 0.3119	–	1008.53
[1], x2 = 0.3711	–	997.66
[1], x2 = 0.4384	–	985.13
[1], x2 = 0.4971	–	974.07
[1], x2 = 0.5548	–	963.05
[1], x2 = 0.6131	–	951.77
[1], x2 = 0.67	–	940.63
[1], x2 = 0.7263	–	929.48
[1], x2 = 0.7824	–	918.28
[1], x2 = 0.8369	–	907.25
[1], x2 = 0.8922	–	895.96
[1], x2 = 0.9457	–	884.85
[2], x2 = 0.051	-0.0033	–
[2], x2 = 0.1085	-0.0092	–
[2], x2 = 0.1746	-0.0236	–
[2], x2 = 0.2423	-0.0421	–
[2], x2 = 0.3076	-0.0662	–
[2], x2 = 0.3688	-0.0846	–
[2], x2 = 0.4325	-0.106	–
[2], x2 = 0.4782	-0.119	–
[2], x2 = 0.525	-0.135	–
[2], x2 = 0.5779	-0.142	–
[2], x2 = 0.6383	-0.145	–
[2], x2 = 0.7034	-0.131	–
[2], x2 = 0.7744	-0.106	–
[2], x2 = 0.8524	-0.0747	–
[2], x2 = 0.9323	-0.0397	–
